In ChEMBL document CHEMBL1148056, “Four new dimeric peptide alkaloids, anchinopeptolides B-D, and cycloanchinopeptolide C, congeners of anchinopeptolide A, from the Mediterranean marine sponge Anchinoe tenacior” (J Nat Prod, 1994) one finds Activity data, which are given here for four molecules.

The species named for assay [1] is Rattus norvegicus. Kind of assay: Displacement of [125I]somatostatin from rat somatostatin receptor at 5 ug/ml. (Displacement assays read how much labelled ligand stays bound in the presence of the test substance.)
The species entered for assay [2] is Rattus norvegicus. Kind of assay: Displacement of [3H]NPY from rat neuropeptide Y receptor at 5 ug/ml.
Assay [3] addresses B2 bradykinin receptor (Homo sapiens) (UniProt P30411). Put plainly: Displacement of [3H]bradykinin from human B2 bradykinin receptor expressed in SF21 cells at 5 ug/ml.

B2 bradykinin receptor (Homo sapiens), sequence (P30411 whole entry, looked up): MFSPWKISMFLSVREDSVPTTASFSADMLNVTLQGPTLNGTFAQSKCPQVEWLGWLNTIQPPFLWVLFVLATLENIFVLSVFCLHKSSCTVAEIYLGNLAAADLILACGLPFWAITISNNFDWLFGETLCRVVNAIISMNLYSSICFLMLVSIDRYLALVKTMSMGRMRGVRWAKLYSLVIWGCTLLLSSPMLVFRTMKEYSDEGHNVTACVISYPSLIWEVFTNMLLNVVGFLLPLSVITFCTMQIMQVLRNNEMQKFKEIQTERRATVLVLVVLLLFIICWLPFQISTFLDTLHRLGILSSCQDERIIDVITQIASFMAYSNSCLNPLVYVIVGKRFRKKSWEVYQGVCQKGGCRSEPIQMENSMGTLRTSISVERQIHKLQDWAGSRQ

As to `C[C@H](NC(=O)[C@@]1(O)[C@H](CCNC(=N)N)[C@@](O)(CCCNC(=N)N)C(=O)N1[C@@H](C)C(=O)N/C=C/c1ccc(O)cc1)C(=O)N/C=C/c1ccc(O)cc1`, the Activity in assay [1], in assay [2] and in assay [3] was 35% throughout.

The molecule `N=C(N)NCCC[C@@]1(O)C(=O)N(CC(=O)N/C=C/c2ccc(O)cc2)[C@@](O)(C(=O)NCC(=O)N/C=C/c2ccc(O)cc2)[C@@H]1CCNC(=N)N` came in with an Activity in assay [1] of 77%.

Consider `C[C@H](NC(=O)[C@@]1(O)[C@H](CCNC(=N)N)[C@@](O)(CCCNC(=N)N)C(=O)N1CC(=O)N/C=C/c1ccc(O)cc1)C(=O)N/C=C/c1ccc(O)cc1`, for which the Activity in assay [1] is 62%; in assay [2], 57%; in assay [3] it was 52%.

Turning to `C[C@@H](C(=O)N/C=C/c1ccc(O)cc1)N1C(=O)[C@](O)(CCCNC(=N)N)[C@@H](CCNC(=N)N)[C@]1(O)C(=O)NCC(=O)N/C=C/c1ccc(O)cc1`, the figures for the Activity in assay [2] and in assay [3] were 80% and 71%, respectively.
